Where “and” joins values, the source holds several entries; their conditions need not be identical. Equal entries are not always repeated.
Experiments:
[1] = tested on: hippocampal neurons expressing GFP; assay: Current-clamp of control cultured hippocampal neurons expressing GFP; type: cell-based, rat; conditions: for DmV MEAN: IRES-EGFP control, MEAN of cells
[2] = target: α7–GlyR mutant chimeric channels (Homo sapiens, UniProt P36544, Q79A); assay: Membrane potential assay screen, mutant α7–GlyR chimeric channels; type: cell-based; conditions: EC50 at α7-GlyR Q79A, sheet 1d
Chain of α7–GlyR mutant chimeric channels (Homo sapiens, UniProt P36544, Q79A) (P36544 23-230 Q79A): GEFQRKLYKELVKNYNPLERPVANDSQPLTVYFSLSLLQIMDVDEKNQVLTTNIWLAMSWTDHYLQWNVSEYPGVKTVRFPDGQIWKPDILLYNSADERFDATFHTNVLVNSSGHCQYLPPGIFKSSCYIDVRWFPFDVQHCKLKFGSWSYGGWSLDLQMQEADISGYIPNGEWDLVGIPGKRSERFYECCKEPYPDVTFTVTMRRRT
Chain of α7–GlyR mutant chimeric channels (Homo sapiens, UniProt P36544, Q79A) (P23415 248-457 partner): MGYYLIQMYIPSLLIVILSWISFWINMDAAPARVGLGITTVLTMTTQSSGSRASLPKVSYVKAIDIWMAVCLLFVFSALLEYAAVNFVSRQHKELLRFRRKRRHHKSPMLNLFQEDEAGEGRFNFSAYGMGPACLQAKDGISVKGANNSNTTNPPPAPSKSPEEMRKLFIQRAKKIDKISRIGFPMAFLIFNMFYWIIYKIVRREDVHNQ

[3] = target: α7–GlyR mutant chimeric channels (Homo sapiens, UniProt P36544, Q139G); assay: as above; type: cell-based; conditions: EC50 at α7 GlyR Q139G, sheet 1d
[4] = target: α7–GlyR mutant chimeric channels (Homo sapiens, UniProt P36544, Q79G); assay: as above; type: cell-based; conditions: EC50 at α7-GlyR Q79G, sheet 1d
[5] = target: α7–GlyR mutant chimeric channels (Homo sapiens, UniProt P36544, L131M); assay: as above; type: cell-based; conditions: EC50 at α7 GlyR L131M, sheet 1d
Chain of α7–GlyR mutant chimeric channels (Homo sapiens, UniProt P36544, L131M) (P36544 23-229 L131M): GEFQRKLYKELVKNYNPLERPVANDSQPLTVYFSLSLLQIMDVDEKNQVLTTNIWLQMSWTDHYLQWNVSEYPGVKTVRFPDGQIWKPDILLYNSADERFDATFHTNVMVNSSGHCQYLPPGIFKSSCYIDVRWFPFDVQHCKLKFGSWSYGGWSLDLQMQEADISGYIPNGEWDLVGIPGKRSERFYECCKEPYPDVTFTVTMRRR
Chain of α7–GlyR mutant chimeric channels (Homo sapiens, UniProt P36544, L131M) (P23415 247-457 partner): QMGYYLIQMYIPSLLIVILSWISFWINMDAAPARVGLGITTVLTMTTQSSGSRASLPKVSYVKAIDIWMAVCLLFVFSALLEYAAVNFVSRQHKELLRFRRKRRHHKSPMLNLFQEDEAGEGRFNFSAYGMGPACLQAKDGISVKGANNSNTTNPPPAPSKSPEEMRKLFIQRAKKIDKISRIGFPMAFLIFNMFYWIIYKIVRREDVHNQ

[6] = target: α7–GlyR mutant chimeric channels (Homo sapiens, UniProt P36544, L131A); assay: as above; type: cell-based; conditions: EC50 at α7GlyR L131A, sheet 1d
Chain of α7–GlyR mutant chimeric channels (Homo sapiens, UniProt P36544, L131A) (P36544 23-228 L131A): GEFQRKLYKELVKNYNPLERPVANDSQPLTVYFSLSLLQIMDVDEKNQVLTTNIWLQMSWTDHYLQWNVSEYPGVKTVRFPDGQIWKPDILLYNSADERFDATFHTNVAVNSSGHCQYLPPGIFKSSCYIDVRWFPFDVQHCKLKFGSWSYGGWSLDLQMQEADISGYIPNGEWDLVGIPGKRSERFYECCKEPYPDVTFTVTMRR
Chain of α7–GlyR mutant chimeric channels (Homo sapiens, UniProt P36544, L131A) (P23415 248-457 partner): as the sequence (P23415 248-457 partner) above

[7] = target: α7–GlyR mutant chimeric channels (Homo sapiens, UniProt P36544, L131F); assay: as above; type: cell-based; conditions: EC50 at α7GlyR L131F, sheet 1d
[8] = target: α7–GlyR mutant chimeric channels (Homo sapiens, UniProt P36544, P216V); assay: as above; type: cell-based; conditions: EC50 at α7 GlyR P216V, sheet 1d
Chain of α7–GlyR mutant chimeric channels (Homo sapiens, UniProt P36544, P216V) (P36544 23-230 P216V): as the sequence (P36544 23-230 Q79A) above, with A57Q, P194V counted along it
Chain of α7–GlyR mutant chimeric channels (Homo sapiens, UniProt P36544, P216V) (P23415 248-457 partner): as the sequence (P23415 248-457 partner) above

[9] = target: α7–GlyR mutant chimeric channels (Homo sapiens, UniProt P36544, P216I); assay: as above; type: cell-based; conditions: EC50 at α7 GlyR P216I, sheet 1d
Chain of α7–GlyR mutant chimeric channels (Homo sapiens, UniProt P36544, P216I) (P36544 23-230 P216I): as the sequence (P36544 23-230 Q79A) above, with A57Q, P194I counted along it
Chain of α7–GlyR mutant chimeric channels (Homo sapiens, UniProt P36544, P216I) (P23415 248-457 partner): as the sequence (P23415 248-457 partner) above

[10] = target: α7–GlyR mutant chimeric channels (Homo sapiens, UniProt P36544, P216M); assay: as above; type: cell-based; conditions: EC50 at α7 GlyR P216M, sheet 1d
[11] = target: α7–GlyR mutant chimeric channels (Homo sapiens, UniProt P36544, L141A); assay: as above; type: cell-based; conditions: EC50 at α7 GlyR L141A, sheet 1d
Chain of α7–GlyR mutant chimeric channels (Homo sapiens, UniProt P36544, L141A) (P36544 23-230 L141A): as the sequence (P36544 23-230 Q79A) above, with A57Q, L119A counted along it
Chain of α7–GlyR mutant chimeric channels (Homo sapiens, UniProt P36544, L141A) (P23415 247-457 partner): as the sequence (P23415 247-457 partner) above

[12] = target: α7–GlyR mutant chimeric channels (Homo sapiens, UniProt P36544, Q79S); assay: as above; type: cell-based; conditions: EC50 at α7-GlyR Q79S, sheet 1d
Chain of α7–GlyR mutant chimeric channels (Homo sapiens, UniProt P36544, Q79S) (P36544 23-230 Q79S): as the sequence (P36544 23-230 Q79A) above, with A57S counted along it
Chain of α7–GlyR mutant chimeric channels (Homo sapiens, UniProt P36544, Q79S) (P23415 248-457 partner): as the sequence (P23415 248-457 partner) above

[13] = target: α7–GlyR mutant chimeric channels (Homo sapiens, UniProt P36544, W77F); assay: as above; type: cell-based; conditions: EC50 at a7 GlyR W77F, sheet 1d
Chain of α7–GlyR mutant chimeric channels (Homo sapiens, UniProt P36544, W77F) (P36544 23-230 W77F): as the sequence (P36544 23-230 Q79A) above, with W55F, A57Q counted along it
Chain of α7–GlyR mutant chimeric channels (Homo sapiens, UniProt P36544, W77F) (P23415 248-457 partner): as the sequence (P23415 248-457 partner) above

[14] = target: α7–GlyR mutant chimeric channels (Homo sapiens, UniProt P36544, L141F); assay: as above; type: cell-based; conditions: EC50 at α7 GlyR L141F, sheet 1d
Chain of α7–GlyR mutant chimeric channels (Homo sapiens, UniProt P36544, L141F) (P36544 23-230 L141F): as the sequence (P36544 23-230 Q79A) above, with A57Q, L119F counted along it
Chain of α7–GlyR mutant chimeric channels (Homo sapiens, UniProt P36544, L141F) (P23415 247-457 partner): as the sequence (P23415 247-457 partner) above

[15] = target: α7–GlyR mutant chimeric channels (Homo sapiens, UniProt P36544, L131N); assay: as above; type: cell-based; conditions: EC50 at α7 GlyR L131N, sheet 1d
Chain of α7–GlyR mutant chimeric channels (Homo sapiens, UniProt P36544, L131N) (P36544 23-230 L131N): as the sequence (P36544 23-230 Q79A) above, with A57Q, L109N counted along it
Chain of α7–GlyR mutant chimeric channels (Homo sapiens, UniProt P36544, L131N) (P23415 247-457 partner): as the sequence (P23415 247-457 partner) above

[16] = target: α7–GlyR mutant chimeric channels (Homo sapiens, UniProt P36544, L131G); assay: as above; type: cell-based; conditions: EC50 at α7GlyR L131G, sheet 1d
[17] = target: α7–GlyR mutant chimeric channels (Homo sapiens, UniProt P36544, L131Q); assay: as above; type: cell-based; conditions: EC50 at α7 GlyR L131Q, sheet 1d
Chain of α7–GlyR mutant chimeric channels (Homo sapiens, UniProt P36544, L131Q) (P36544 23-230 L131Q): as the sequence (P36544 23-230 Q79A) above, with A57Q, L109Q counted along it
Chain of α7–GlyR mutant chimeric channels (Homo sapiens, UniProt P36544, L131Q) (P23415 247-457 partner): as the sequence (P23415 247-457 partner) above

## COC(=O)[C@H]1[C@@H](OC(=O)c2ccccc2)C[C@@H]2CC[C@H]1N2C [cocaine]
[1]; GFP control neurons
  depolarization of control neurons: did not affect control neurons
[1]; cocaine 0.1 uM
  DmV MEAN: -0.03 mV
[1]; cocaine 0.3 uM
  DmV MEAN: -0.2411 mV
[1]; cocaine 1 uM
  DmV MEAN: 0.04889 mV
[1]; cocaine 3 uM
  DmV MEAN: 0.31 mV
[1]; cocaine 10 uM
  DmV MEAN: -0.01556 mV
[1]; cocaine 30 uM
  DmV MEAN: -0.4375 mV
[2]; Avg
  EC50: > 30 µM
[2]; single determinations
  EC50: > 30 µM
[3]; Avg
  EC50: > 30 µM
[3]; single determinations
  EC50: > 30 µM
[4]; Avg
  EC50: > 30 µM
[4]; single determinations
  EC50: > 30 µM
[5]; Avg
  EC50: > 30 µM
[5]; single determinations
  EC50: > 30 µM
[6]; Avg
  EC50: > 30 µM
[6]; single determinations
  EC50: > 30 µM
[7]; Avg
  EC50: > 30 µM
[7]; single determinations
  EC50: > 30 µM
[8]; Avg
  EC50: > 30 µM
[8]; single determinations
  EC50: > 30 µM
[9]; Avg
  EC50: > 30 µM
[9]; single determinations
  EC50: > 30 µM
[10]; Avg
  EC50: > 30 µM
[10]; single determinations
  EC50: > 30 µM
[11]; Avg
  EC50: 5 µM
[11]; single determinations
  EC50: 6.7 µM and 3.3 µM
[12]; Avg
  EC50: > 30 µM
[12]; single determinations
  EC50: > 30 µM
[13]; Avg
  EC50: 3.4 µM
[13]; single determinations
  EC50: 3.4 µM
[14]; Avg
  EC50: > 30 µM
[14]; single determinations
  EC50: > 30 µM
[15]; Avg
  EC50: 21 µM
[15]; single determinations
  EC50: 12 µM and > 30 µM
[16]; Avg
  EC50: > 30 µM
[16]; single determinations
  EC50: > 30 µM
[17]; Avg
  EC50: > 30 µM
[17]; single determinations
  EC50: > 30 µM

Source: paper PMC12527922, “Cocaine chemogenetics blunts drug-seeking by synthetic physiology” (Nature, 2025)
